Results: US20160015703A1, “NANO- MIC[…] FOR […] OF AN ACTIVE INGREDIENT” (Danmarks Tekniske Universitet, priority 2013, published 2016)

Assay: in vitro
Conditions: human

## CN1CCCC1c1cccnc1 (stereo not shown) [HBSS with nicotine, nicotine]
  Papp: 8.5 ×10⁻⁶ cm/s
